Reference: patent US7141394B2, “More stable analog of isopropyl thiogalactoside for induction of protein expression” (Iowa State University Research Foundation, Inc., priority 2003, dated 2006)
Entries after “also recorded” stand apart in the source; their conditions may differ.

Experiments:
[1] = Stability of the inducer in solution on storage; type: physicochemical; details: ambient / room temperature; in water
Source text: This improved stability feature of IBCG also results in more accurate concentrations of the compound when used in experiments.
The latter property is especially valuable for small scale culture induction and for cases in which a more precise concentration of inducer is desirable.

lac promoter = assay: EGFP fluorescence reporter assay of induction of protein expression under the lac promoter; type: cell-based, E. coli; details: for EGFP fluorescence emission at 507 nm after excitation at 488 nm, normalized for the number of cells: induced at OD600 0.7, versus culture without inducer
Source text: To compare the ability of the C-glycoside to take the place of IPTG in the induction of protein expression, assays of promoter activity that rely on production of a fluorescent protein were pursued. Reporters for gene activity in bacteria that rely on green fluorescent protein (GFP) and its variants have become very popular as they have been validated by direct comparison to traditional reporter assays using either chloroamphenicol acetyltransferase or β-galactosidase. For bacterial studies, the enhanced green fluorescent protein (EGFP) is particularly useful as it is not toxic to E. coli like the wild type GFP itself and the protein folds and autocatalyzes formation of its fluorophore with a half-life of less than 45 minutes rather than hours. Therefore, the gene for EGFP (BD Biosciences) was ligated into a pET vector plasmid using NcoI and EcoRI in order to have control of EGFP protein expression with a lac promoter system and to have low background protein expression levels. This plasmid was transformed into E. coli BL21 DE(3) cells for protein expression studies. The cells were grown to an optical density of 0.7 (at 600 nm) and then protein production was induced with either IBCG or IPTG. The fluorescence emission at 507 nm after excitation at 488 nm, normalized for the number of cells, was plotted as a function of time (data not shown) as previously reported.

[2] = E. coli BL21 DE(3) with pET-EGFP plasmid

CC(C)CC1OC(CO)C(O)C(O)C1O [IBCG, 1-isobutyl-,β-D-galactose]
stability in solution [1]: stable in solution at ambient temperature; also recorded: can be autoclaved in water and stored in room temperature | EGFP fluorescence emission at 507 nm after excitation at 488 nm, normalized for the number of cells (lac promoter; [2]): considerably larger | EGFP fluorescence of IBCG induced cells compared with IPTG induced cells (lac promoter; E. coli BL21 DE(3) with pET-EGFP plasmid, induction times of greater than four hours): even greater fluorescence than the IPTG induced cells | cell permeability (lac promoter; E. coli cells, inferred from induction of protein expression): retains cell permeability

CC(C)S[C@@H]1O[C@H](CO)[C@H](O)[C@H](O)[C@H]1O [IPTG, isopropyl-β-D-thiogalactopyranoside, reference compound]
EGFP fluorescence emission at 507 nm after excitation at 488 nm, normalized for the number of cells (lac promoter; [2]): considerably larger
